The experiment concerns the target T1, ERK2 (Rattus norvegicus, UniProt P63086).
T1 construct: gene Mapk1; full-length ERK2
The experiment can be described thus: fluorescence anisotropy displacement of FITC D-site peptide; also protein NMR, intact MS, kinact/Ki. In kind it is binding. In general terms: Polarisation of emitted light reports the rotation of a fluorescent probe.

T1 sequence (P63086 2-358): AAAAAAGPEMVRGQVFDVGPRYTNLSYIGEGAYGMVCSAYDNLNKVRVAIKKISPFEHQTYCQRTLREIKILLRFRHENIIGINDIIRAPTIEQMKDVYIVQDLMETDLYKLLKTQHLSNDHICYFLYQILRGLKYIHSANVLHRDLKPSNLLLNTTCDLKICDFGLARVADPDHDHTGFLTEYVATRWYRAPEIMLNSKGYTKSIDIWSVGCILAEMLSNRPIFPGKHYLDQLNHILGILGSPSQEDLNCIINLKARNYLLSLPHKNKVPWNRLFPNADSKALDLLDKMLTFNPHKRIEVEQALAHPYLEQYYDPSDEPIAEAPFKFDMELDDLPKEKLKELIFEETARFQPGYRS

As usually defined, the Ki is the equilibrium dissociation constant of an inhibitor or competing ligand from its target. A higher Ki goes with lower affinity. On to `O=[N+]([O-])c1cnc(Sc2nnc(O)n2-c2ccc3c(c2)OCCO3)s1` [compound 1, BI-78D3], for which the Ki was found to be 800 ± 200 nM.
